Measured values: patent publication US20020076393A1, “Method for stimulation of defensin production” (MAGAININ PHARMACEUTICALS, INC., priority 1998, published 2002)

How the values were obtained:
[1] = tested on: defensin production in MDBK cells; assay: Defensin induction in MDBK cells (RNA-PCR / QPCR of β-defensin RNA); format: cell-based, bovine; conditions: for effect on defensin production: at concentrations as high as fifty micrograms per milliliter
Procedure: Cell Culture: MDBK (Madin-Darby Bovine Kidney) cells were obtained from the ATCC (Rockville, Md.) and were maintained in growth medium consisting of Eagle's modified essential media with Earle's balanced salt solution, 10% horse serum, 0.10 mM non-essential amino acids and no antibiotics. For stimulation experiments, cells were plated into six well tissue culture plates and maintained for three days in growth medium until cells were almost confluent. The medium was then changed to serum-free epithelial cell growth medium (Clonetics, San Diego, Calif.) and the test material was added to the dish. Twenty-four hours later, the medium was withdrawn and cells were rinsed with phosphate-buffered saline. Total RNA was then isolated using Trizol reagent (Gibco/BRL, Grand Island, N.Y.) according to protocols supplied by the manufacturer. RNA was quantified by measuring the OD260 of each sample.
RNA-Polymerase Chain Reaction: Total RNA was treated with DNase prior to reverse transcription and PCR. The DNase was heat inactivated at 65° C. in the presence of EDTA for ten minutes. Reverse transcription and PCR were performed essentially as described for the GeneAmp RNA PCR kit (Perkin Elmer, Foster City, Calif.). Briefly, approximately 250 nanograms of total RNA was primed with polydT and reverse transcribed with Murine Leukemia Virus reverse transcriptase in a total volume of 16 μL at room temperature for ten minutes and then at 42° C. for an additional fifteen minutes. The reverse transcriptase was heat inactivated at 99° C. for five minutes and the reaction was chilled to 4 degrees C. This reverse transcription reaction was then split in half: one portion was used for amplification of the target defensin RNA, and the other was treated in parallel to determine the β-tubulin RNA level as a control. Additional reagents necessary for the PCR reaction, including appropriate synthetic DNA primers;
were added after splitting the reverse transcription reactions to bring the reaction volumes to 40 μL. The reactions were then subjected to thermal cycling as follows: 95° C. for one minute, 52° C. for one minute, 72° C. for one minute for 30 cycles followed by a single 72° C. incubation for fifteen minutes to allow for extension. The expected 200 base pair β-defensin PCR product was measured by gel electrophoresis or QPCR (Quantitative PCR).
Product Capture for QPCR System: 10 μL of the final PCR mixture was combined with 15 μL of strepavidin bead slurry (Perkin-Elmer, Foster City, Calif.), 21 μL H2O and 4 μL of 10× PCR buffer to yield a 50 μL binding reaction. The binding reactions were incubated at room temperature for fifteen minutes with occasional agitation. One ml of QPCR assay buffer was then added to the reaction. The quantity of PCR product was subsequently measured with the Perkin-Elmer QPCR instrument (Perkin-Elmer, Foster City, Calif.). The amount of defensin product was normalized to endogenous expression in MDBK cells in the absence of any experimental agent.

[2] = tested on: defensin production in HT-29 cells; assay: Defensin induction in the human colon epithelial cell line HT-29; format: cell-based; conditions: FIG. 5
[3] = tested on: defensin production in epithelial cells; assay: Defensin inducing effect of isoleucine analogs in epithelial cells (FIGS. 6-9); format: cell-based; conditions: for defensin induction: epithelial cells, FIGS. 6, 7 and 8

CC[C@H](C)[C@H](N)C(=O)O [L-isoleucine]
dose-response effect on defensin production ([1]; FIG. 2): dose-dependent effect
concentration increasing defensin production, fold less than that of D-isoleucine ([1]; L-isoleucine versus D-isoleucine, FIGS. 2 and 3): fifty to one-hundred
defensin induction [2]: defensin inducing property

COC(=O)[C@@H](N)Cc1ccc(O)cc1 [L-tyrosine methyl ester, reference compound]
effect on defensin production [1]: no effect

CC(C)[C@H](N)C(=O)O [L-valine]
effect on defensin production [1]: no effect
stimulation of defensin expression, concentrations compared with isoleucine ([3]; FIG. 9): stimulates defensin expression at concentrations that are substantially higher than those needed for isoleucine

CC[C@@H](C)[C@H](N)C(=O)O [alloisoleucine]
effectiveness as inducer of defensin production compared with isoleucine ([1]; FIG. 4): not as effective an inducer

CC[C@H](C)C(=O)C(=O)O [alpha-keto-methylvalerate]
defensin induction [3]: inducers of defensin production

CC[C@H](C)[C@H](N)C(=O)NO [isoleucine hydroxamate]
defensin induction [3]: inducers of defensin production
